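Each compound was tested at five concentrations against cells in 96-well plates for 48 hours. GI50: concentration for 50% inhibition of growth.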 Active and inactive are the calls of the source. No stated cut-off is given here; in the data, active = GI50 up to about 1.1 µM and inactive = higher.
Tests used:
Assay in all cases: NCI-60 cell line screen, 48 h
SNB-19 = system: SNB-19
SK-OV-3 = system: SK-OV-3
OVCAR-4 = system: OVCAR-4
LOX IMVI = system: LOX IMVI
IGROV-1 = system: IGROV-1
NCI-H460 = system: NCI-H460
MOLT-4 = system: MOLT-4
HOP-62 = system: HOP-62
CAKI-1 = system: CAKI-1
COLO 205 = system: COLO 205
HL-60 = system: HL-60
SF-295 = system: SF-295
DMS-114 = system: DMS-114
A498 = system: A498
A549 = system: A549
Malme-3M = system: Malme-3M
KM-20L2 = system: KM-20L2
OVCAR-8 = system: OVCAR-8
HCC 2998 = system: HCC 2998
CCRF-CEM = system: CCRF-CEM
UO-31 = system: UO-31
HT-29 = system: HT-29
K562 = system: K562
HOP-92 = system: HOP-92
NCI-H226 = system: NCI-H226
RXF 631 = system: RXF 631
HCT-15 = system: HCT-15
SR = system: SR
HOP-18 = system: HOP-18
NCI-H23 = system: NCI-H23
UACC-62 = system: UACC-62
UACC-257 = system: UACC-257
786-0 = system: 786-0
OVCAR-5 = system: OVCAR-5
DMS-273 = system: DMS-273
OVCAR-3 = system: OVCAR-3
TK-10 = system: TK-10
LXFL 529 = system: LXFL 529
SF-268 = system: SF-268
HCT-116 = system: HCT-116
RPMI-8226 = system: RPMI-8226
SK-MEL-28 = system: SK-MEL-28
M19-MEL = system: M19-MEL
ACHN = system: ACHN
SW-620 = system: SW-620
SN12C = system: SN12C
U-251 = system: U-251
SK-MEL-5 = system: SK-MEL-5
DLD-1 = system: DLD-1
M14 = system: M14
KM12 = system: KM12
SK-MEL-2 = system: SK-MEL-2
NCI-H522 = system: NCI-H522
SF-539 = system: SF-539
SNB-78 = system: SNB-78
SNB-75 = system: SNB-75
EKVX = system: EKVX
RXF 393 = system: RXF 393

In the case of CCCCCCCCOCC(COC(=O)CCCCCCC)OC(=O)CCCCCCC (stereo not drawn), the GI50 (SNB-19) is reported as > 100 µM (inactive), the GI50 (SK-OV-3) is reported as > 100 µM (inactive) and the GI50 (OVCAR-4) is reported as > 100 µM (inactive). The GI50 (LOX IMVI) was > 100 µM (inactive), the GI50 (IGROV-1) was > 100 µM (inactive) and the GI50 (NCI-H460) was > 100 µM (inactive). The GI50 (MOLT-4) was > 100 µM (inactive), the GI50 (HOP-62) was > 100 µM (inactive) and the GI50 (CAKI-1) was > 100 µM (inactive). The GI50 (COLO 205) was > 100 µM (inactive), the GI50 (HL-60) was > 100 µM (inactive) and the GI50 (SF-295) was > 100 µM (inactive). For the same compound, the GI50 (DMS-114) was > 100 µM (inactive), the GI50 (A498) was > 100 µM (inactive) and the GI50 (A549) was > 100 µM (inactive). For the same compound, the GI50 (Malme-3M) was > 100 µM (inactive), the GI50 (KM-20L2) was > 100 µM (inactive) and the GI50 (OVCAR-8) was > 100 µM (inactive). The GI50 (HCC 2998) was > 100 µM (inactive), the GI50 (CCRF-CEM) was 57 µM (inactive) and the GI50 (UO-31) was > 100 µM (inactive). The GI50 (HT-29) was > 100 µM (inactive), the GI50 (K562) was > 100 µM (inactive) and the GI50 (HOP-92) was 51.5 µM (inactive). The GI50 (NCI-H226) was > 100 µM (inactive), the GI50 (RXF 631) was > 100 µM (inactive) and the GI50 (HCT-15) was over 100 µM. The GI50 (SR) was 53 µM (inactive), the GI50 (HOP-18) was > 100 µM (inactive) and the GI50 (NCI-H23) was > 100 µM (inactive). For the same compound, the GI50 (UACC-62) was > 100 µM (inactive), the GI50 (UACC-257) was > 100 µM (inactive) and the GI50 (786-0) was > 100 µM (inactive). For the same compound, the GI50 (OVCAR-5) was > 100 µM (inactive), the GI50 (DMS-273) was > 100 µM (inactive) and the GI50 (OVCAR-3) was > 100 µM (inactive). For the same compound, the GI50 (TK-10) was > 100 µM (inactive), the GI50 (LXFL 529) was > 100 µM (inactive) and the GI50 (SF-268) was > 100 µM (inactive). The GI50 (HCT-116) was > 100 µM (inactive), the GI50 (RPMI-8226) was > 100 µM (inactive) and the GI50 (SK-MEL-28) was > 100 µM (inactive). For the same compound, the GI50 (M19-MEL) was > 100 µM (inactive), the GI50 (ACHN) was > 100 µM (inactive) and the GI50 (SW-620) was > 100 µM (inactive). For the same compound, the GI50 (SN12C) was > 100 µM (inactive), the GI50 (U-251) was > 100 µM (inactive) and the GI50 (SK-MEL-5) was > 100 µM (inactive). For the same compound, the GI50 (DLD-1) was > 100 µM (inactive) and the GI50 (M14) was > 100 µM (inactive).
In the case of CC1=Nc2ccccc2NC(c2ccoc2)C1 (stereo not drawn), the GI50 (SNB-19) is reported as > 100 µM (inactive), the GI50 (SK-OV-3) is reported as > 100 µM (inactive) and the GI50 (OVCAR-4) is reported as > 100 µM (inactive). For the same compound, the GI50 (LOX IMVI) was > 100 µM (inactive), the GI50 (IGROV-1) was > 100 µM (inactive) and the GI50 (NCI-H460) was > 100 µM (inactive). The GI50 (MOLT-4) was > 100 µM (inactive), the GI50 (HOP-62) was > 100 µM (inactive) and the GI50 (CAKI-1) was > 100 µM (inactive). For the same compound, the GI50 (COLO 205) was > 100 µM (inactive), the GI50 (HL-60) was > 100 µM (inactive) and the GI50 (SF-295) was > 100 µM (inactive). The GI50 (DMS-114) was > 100 µM (inactive), the GI50 (A498) was > 100 µM (inactive) and the GI50 (A549) was > 100 µM (inactive). The GI50 (Malme-3M) was > 100 µM (inactive), the GI50 (KM-20L2) was > 100 µM (inactive) and the GI50 (KM12) was > 100 µM (inactive). For the same compound, the GI50 (OVCAR-8) was > 100 µM (inactive), the GI50 (HCC 2998) was > 100 µM (inactive) and the GI50 (CCRF-CEM) was > 100 µM (inactive). The GI50 (SK-MEL-2) was > 100 µM (inactive), the GI50 (UO-31) was > 100 µM (inactive) and the GI50 (HT-29) was > 100 µM (inactive). For the same compound, the GI50 (K562) was > 100 µM (inactive), the GI50 (HOP-92) was > 100 µM (inactive) and the GI50 (NCI-H226) was > 100 µM (inactive). The GI50 (RXF 631) was > 100 µM (inactive), the GI50 (HCT-15) was over 100 µM and the GI50 (NCI-H522) was > 100 µM (inactive). For the same compound, the GI50 (SR) was > 100 µM (inactive), the GI50 (HOP-18) was > 100 µM (inactive) and the GI50 (SF-539) was > 100 µM (inactive). For the same compound, the GI50 (SNB-78) was > 100 µM (inactive), the GI50 (NCI-H23) was > 100 µM (inactive) and the GI50 (UACC-62) was > 100 µM (inactive). For the same compound, the GI50 (UACC-257) was > 100 µM (inactive), the GI50 (786-0) was > 100 µM (inactive) and the GI50 (OVCAR-5) was > 100 µM (inactive). The GI50 (DMS-273) was > 100 µM (inactive), the GI50 (OVCAR-3) was > 100 µM (inactive) and the GI50 (TK-10) was > 100 µM (inactive). For the same compound, the GI50 (LXFL 529) was > 100 µM (inactive), the GI50 (SF-268) was > 100 µM (inactive) and the GI50 (HCT-116) was > 100 µM (inactive). The GI50 (RPMI-8226) was > 100 µM (inactive), the GI50 (SK-MEL-28) was > 100 µM (inactive) and the GI50 (M19-MEL) was > 100 µM (inactive). For the same compound, the GI50 (ACHN) was > 100 µM (inactive), the GI50 (SNB-75) was > 100 µM (inactive) and the GI50 (SW-620) was > 100 µM (inactive). For the same compound, the GI50 (SN12C) was > 100 µM (inactive), the GI50 (EKVX) was > 100 µM (inactive) and the GI50 (RXF 393) was > 100 µM (inactive). For the same compound, the GI50 (U-251) was > 100 µM (inactive), the GI50 (SK-MEL-5) was > 100 µM (inactive) and the GI50 (DLD-1) was > 100 µM (inactive). The GI50 (M14) was > 100 µM (inactive).
